Results as given in PMC4954055, “A Self‐Assembled Respiratory Chain that Catalyzes NADH Oxidation by Ubiquinone‐10 Cycling between Complex I and the Alternative Oxidase” (Angewandte Chemie (International Ed. in English), 2015).

Target: T1, alternative oxidase (AOX) (Trypanosoma brucei, UniProt Q26710)
T1 construct: single-subunit quinol oxidase reconstituted into proteoliposomes
Assay: coupled NADH:O2 oxidoreduction in CI/Q10/AOX proteoliposomes
Assay type: biochemical
Conditions: complex I rate determining; Q10H2 formed in the membrane by complex I

T1 sequence (Q26710 25-329): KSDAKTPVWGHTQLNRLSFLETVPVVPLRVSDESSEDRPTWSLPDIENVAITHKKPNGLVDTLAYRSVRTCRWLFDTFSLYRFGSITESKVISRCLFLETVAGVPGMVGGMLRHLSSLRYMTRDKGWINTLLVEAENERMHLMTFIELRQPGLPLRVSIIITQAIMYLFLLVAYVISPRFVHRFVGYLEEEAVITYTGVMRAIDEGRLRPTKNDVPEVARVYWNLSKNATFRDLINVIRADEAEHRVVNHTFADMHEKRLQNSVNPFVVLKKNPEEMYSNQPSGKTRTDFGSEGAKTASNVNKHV

COc1c(O)c(C)c(C/C=C(\C)CC/C=C(\C)CC/C=C(\C)CC/C=C(\C)CC/C=C(\C)CC/C=C(\C)CC/C=C(\C)CC/C=C(\C)CC/C=C(\C)CCC=C(C)C)c(O)c1OC [Q10H2]
coupled NADH:O2 oxidoreduction in CI/Q10/AOX proteoliposomes: AOX reoxidizes the Q10H2 and reduces O2 to H2O
